Measured values as given in patent US20140193827A1 (TEVA PHARMACEUTICAL INDUSTRIES, LTD., priority 2013, published 2014).

Tested on: GA-primed murine splenocytes
Experiment: ANOVA-based pattern identification method
Format: cell-based, mouse
Settings: UP IN generic ONLY
Text: We sought to identify probes matching specific patterns of expression across experimental conditions using a technique that referred to as the ANOVA-based Pattern Identification Method.
To carry out the analysis in a general manner, we computed the 6 p-values required to do pairwise comparisons of all 4 conditions for all probes using the ANOVA1 function in MATLAB. We then identified sets of probes matching the desired pattern. In the example above, probes were identified as being only affected by PG if their 6 pairwise comparison pvalues matched the following pattern (pGA-PG<0.05, pPG-reference standard<0.05, pPG-Medium<0.05, pGAMedium>0.05, pGA-reference standard>0.05, preference standard-Medium>0.05).

With glatiramer acetate [GA] the 4930544L04RIK expression was 5.873, the 4933437N03RIK expression was 6.099 and the 5330403O16RIK expression was 5.716. For the same substance, the 5730472N09RIK expression was 7.649, the 5830457O10RIK expression was 9.145 and the 5930400G23RIK expression was 5.875. The 6330579M01RIK expression was 5.814, the 6430709H04RIK expression was 5.642 and the 6720407G21RIK expression was 5.543. For the same substance, the 8030455F02RIK expression was 5.766, the 9030624J02RIK expression was 9.517 and the 9130011J15RIK expression was 8.444. For the same substance, the 9330104G04RIK expression was 5.71, the 9330158H04RIK expression was 5.699 and the 9330183F02RIK expression was 5.986. It also gave a 9430003J03RIK expression of 6.25, a 9430078K10RIK expression of 6.125 and a 9430088N01RIK expression of 6.673. It also gave a 11110020P15RIK expression of 12.88, an A4GALT expression of 5.801 and an A230005A19RIK expression of 5.83. The A230084A06RIK expression was 5.804, the ADAL expression was 6.367 and the ADAR expression was 8.858. The ADPRHL2 expression was 6.783, the AI844366 expression was 5.793 and the AKT2 expression was 5.919. For the same substance, the ALOX15 expression was 5.968, the ARFGAP2 expression was 9.429 and the ARVCF expression was 5.727. The ATG3 expression was 5.593, the ATP9B expression was 5.92 and the ATP13A1 expression was 9.018. The ATPBD3 expression was 6.569, the B930062B16RIK expression was 6.038 and the BC017612 expression was 7.394. It also gave a BC031853 expression of 6.952, a BC037704 expression of 7.193 and a BC040758 expression of 6.077. For the same substance, the BCKDK expression was 9.485, the BCL2L2 expression was 5.792 and the BCL2L12 expression was 6.997. For the same substance, the BLCAP expression was 8.164, the BPHL expression was 5.714 and the BTRC expression was 7.946. It also gave a BZRPL1 expression of 6.203, a C130040D06RIK expression of 5.711 and a C230062L16RIK expression of 6.189. The C230092H20RIK expression was 5.902, the C730048C13RIK expression was 5.941 and the C920004C08RIK expression was 11.38. It also gave a CAPZB expression of 5.854, a CAR6 expression of 5.68 and a CBARA1 expression of 7.517. For the same substance, the CCL2 expression was 5.834, the CD44 expression was 5.953 and the CD151 expression was 7.186. For the same substance, the CDC42BPB expression was 7.153, the CDCA1 expression was 5.663 and the CEBPE expression was 6.204. For the same substance, the CENTD3 expression was 7.76, the CHGA expression was 5.756 and the CHRM2 expression was 5.589. The CLCN1 expression was 5.787, the CLCNKB expression was 5.956 and the CLEC4A3 expression was 6.547. It also gave a CNGA4 expression of 6.005, a CNTLN expression of 5.647 and a COBLL1 expression of 7.08. The COL4A1 expression was 6.209, the COQ6 expression was 9.965 and the COQ9 expression was 8.284. For the same substance, the COTL1 expression was 12.24, the CTNNA3 expression was 5.701 and the CXCL14 expression was 5.622. It also gave a CYGB expression of 6.119, a D0HXS9928E expression of 9.848 and a D11WSU47E expression of 7.068. For the same substance, the D130017N08RIK expression was 6.061, the D430013G08RIK expression was 5.658 and the DACH1 expression was 5.874. The DBF4 expression was 8.57, the DHDH expression was 7.454 and the DNAHC17 expression was 5.838. It also gave a DNM3 expression of 5.71, a DUS2L expression of 6.953 and an E030016N13RIK expression of 6.199. The E330037I15RIK expression was 6.256, the EFCAB6 expression was 5.61 and the EG665903 expression was 5.547. The ENAH expression was 5.919, the EPM2A expression was 5.76 and the F830116E18RIK expression was 5.893. It also gave an FAHD1 expression of 7.177, an FAM123A expression of 5.862 and an FBXL15 expression of 7.284. For the same substance, the FBXL21 expression was 5.656, the FGR expression was 6.972 and the FOXE1 expression was 5.777. It also gave an FOXP4 expression of 6.284, an FRY expression of 5.74 and a GABRG1 expression of 5.55. For the same substance, the GM628 expression was 5.746, the GPAA1 expression was 7.442 and the “GPR106, LGR8, GPCR expression” value was 5.814. For the same substance, the GSTK1 expression was 8.386, the GYPA expression was 6.898 and the HIST2H2AA1 expression was 6.224. It also gave an HMGCL expression of 7.958, an HOXC10 expression of 6.132 and an HSD3B2 expression of 5.776. It also gave an HTATIP2 expression of 8.787, an INTS7 expression of 9.311 and an ISCA1 expression of 9.378. The ITFG2 expression was 8.148, the ITGA2B expression was 6.451 and the JPH1 expression was 5.671. It also gave a KCNC3 expression of 5.962, a KIF17 expression of 5.897 and a KLHDC3 expression of 7.853. For the same substance, the KREMEN2 expression was 6.223, the KRTCAP2 expression was 12.5338 and the LOC223628 expression was 5.598. It also gave an LOC277049 expression of 5.915, an LOC277236 expression of 5.977 and an LOC332300 expression of 6.243. The LOC380636 expression was 5.566, the LOC380723 expression was 5.812 and the LOC382813 expression was 5.786. The LOC383439 expression was 5.708, the LOC385989 expression was 5.996 and the LOC546088 expression was 5.782. For the same substance, the LOC677528 expression was 9.498, the LOC100045460 expression was 5.645 and the LOC100046781 expression was 6.089. The LOC100047194 expression was 5.921, the LOC100047603 expression was 6.184 and the LOC100048331 expression was 5.894. It also gave an LY96 expression of 7.768, an LYSMD4 expression of 6.812 and an MAGEA9 expression of 5.817. The MAGEE2 expression was 5.808, the MAK10 expression was 9.516 and the MAPKAPK2 expression was 10.02. For the same substance, the MCPT6 expression was 5.782, the MFSD7A expression was 5.961 and the MKNK1 expression was 6.113. It also gave an MLANA expression of 5.769, an MOCO5 expression of 6.424 and an MS4A7 expression of 6.506. The MTAP1S expression was 8.992, the MTRR expression was 6.473 and the NAPA expression was 7.994. It also gave an NAPRT1 expression of 6.46, an NCDN expression of 8.408 and an NEK4 expression of 5.969. The NFE2L1 expression was 9.753, the NFKB1 expression was 11.57 and the NRXN1 expression was 5.957. For the same substance, the NSF expression was 9.95, the OLFR228 expression was 5.655 and the OLFR312 expression was 5.726. The OLFR506 expression was 5.636, the OLFR519 expression was 5.669 and the OLFR907 expression was 5.644. It also gave an OLFR1155 expression of 5.789, a PALLD expression of 5.641 and a PALM expression of 6.421. The PCBD2 expression was 10.32, the PCDHAC1 expression was 5.69 and the PCOLN3 expression was 7.171. The PDGFB expression was 6.243, the PEF1 expression was 9.307 and the PKIA expression was 6.356. It also gave a PKIB expression of 5.803, a PLD1 expression of 5.927 and a PRDX2 expression of 11.61. For the same substance, the PRPF3 expression was 10.04, the PSCD2 expression was 6.134 and the PSG22 expression was 5.693. The PTPRF expression was 5.709, the R74862 expression was 6.215 and the RALGPS2 expression was 8.862. For the same substance, the RASAL2 expression was 6.006, the RBPMS expression was 6.068 and the REXO1 expression was 6.854. For the same substance, the RHOF expression was 9.948, the RHOT1 expression was 9.777 and the RNF40 expression was 6.148. The RNF183 expression was 5.994, the RPUSD3 expression was 6.756 and the RSC1A1 expression was 7.697. For the same substance, the SAMD10 expression was 6.984, the SARDH expression was 5.837 and the “SCAVENGER RECEPTOR expression” value was 6.161. The SCN1B expression was 5.97, the SFRS2IP expression was 9.233 and the SGSM3 expression was 7.217. It also gave an SLC7A8 expression of 6.268, an SLC13A5 expression of 5.704 and an SLC22A21 expression of 5.775. For the same substance, the SLC26A6 expression was 6.454, the SMG7 expression was 9.655 and the SNCA expression was 5.875. The SOX7 expression was 6.163, the SPEN expression was 6.891 and the SPIN2 expression was 6.355. The SYMPK expression was 8.402, the SYN1 expression was 5.985 and the TAF3 expression was 7.199. It also gave a TCEAL5 expression of 5.768, a TCF7L2 expression of 5.717 and a TFIP11 expression of 8.095. It also gave a TFRC expression of 9.789, a TG737RPW expression of 6.301 and a THOC1 expression of 8.813. The TJAP1 expression was 8.168, the TMEM43 expression was 9.133 and the TNXB expression was 5.703. For the same substance, the TRABD expression was 8.509, the TRIM2 expression was 5.778 and the TRIM15 expression was 5.62. For the same substance, the TRPV4 expression was 5.895, the TRUB1 expression was 8.23 and the TSNAXIP1 expression was 5.811. For the same substance, the TTC4 expression was 8.309, the TTC15 expression was 7.191 and the UACA expression was 6.1. It also gave a UAP1 expression of 8.168, a UBE2A expression of 7.652 and a UBE2E2 expression of 6.42. It also gave a UGP2 expression of 7.767, a USP10 expression of 6.432 and a USP36 expression of 8.5. For the same substance, the V1RC23 expression was 5.692, the VGLL2 expression was 5.853 and the WIZ expression was 7.206. The WNK2 expression was 5.719, the XPO5 expression was 7.592 and the ZBTB6 expression was 6.029. It also gave a ZEB2 expression of 5.602, a ZFP162 expression of 7.652 and a ZFP239 expression of 7.228. For the same substance, the ZFP563 expression was 5.809, the ZFP748 expression was 5.815 and the ZMAT3 expression was 7.615. For the same substance, the ZMIZ1 expression was 7.099, the control_ILMN_1378661 expression was 5.718 and the control_ILMN_1378677 expression was 5.994. The control_ILMN_1378911 expression was 5.7, the AMBRA1 expression (first AMBRA1 line (r790)) was 5.749 and the CAMK1 expression (first CAMK1 line (r746)) was 6.416. For the same substance, the AMBRA1 expression (second AMBRA1 line (r797)) was 8.755 and the CAMK1 expression (second CAMK1 line (r762)) was 5.514.
